Laboratory results: article PMC10574767, “Extractives from Artemisia afra with Anti-Bacterial and Anti-Fungal Properties” (Plants, 2023)
In brackets after ≈: the same amount, converted by molar mass.

Legend:
B. subtilis = test system: B. subtilis; design: method as in PMID 24575401; settings: cited from earlier work
Salmonella sp. = test system: Salmonella sp.; design: method as in PMID 24575401; settings: cited from earlier work
S. aureus = test system: S. aureus; design: method as in PMID 24575401; settings: cited from earlier work
Huh7 cells = test system: Huh7 cells; design: method as in ref 66 = [66]; 66. NCCLS 2007 Available online: http://www.nccls.org (accessed on 15 March 2022); settings: cited from earlier work
P. aeruginosa = test system: P. aeruginosa; design: method as in doi:10.1590/0102-695X20142413348; settings: cited from earlier work
[1] = test system: normal human primary fibroblasts; design: method as in ref 66 = [66]; 66. NCCLS 2007 Available online: http://www.nccls.org (accessed on 15 March 2022); settings: cited from earlier work
in vitro = settings: monkey, LC50
Method: Cytotoxicity of compounds and extracts was tested against mammalian cells using the MTT assay. MCF-7 cancer cells were grown in a 5% CO2 incubator in Dulbecco’s Modified Eagle’s Medium (DMEM, Highveld Biological, Johannesburg, South Africa) supplemented with 10% fetal calf serum (Adcock-Ingram, Johannesburg, South Africa) and 1% penicillin-streptomycin (10,000 U/mL and 10 mg/mL streptomycin, Sigma Aldrich). In a 5% CO2 incubator, Vero cells were grown in a minimal essential medium (MEM, Highveld Biological, South Africa) supplemented with 5% fetal calf serum (Adcock-Ingram) and 0.1% gentamicin (Virbac). Cell suspensions were obtained from 70–80% confluent monolayer cultures and were plated in 96-well cell culture plates at a density of 1 × 10^4. Plates were incubated in a 5% CO2 incubator for 24 h at 37 °C. The cells were exposed to the extracts or compounds dissolved in the media at different concentrations for 48 h. Positive and negative controls were doxorubicin (Pfizer, New York, NYC, USA) and acetone or DMSO, respectively. After that, the wells were rinsed with phosphate-buffered saline (PBS, Sigma) and 200 µL of fresh medium was poured into the wells. Thirty microlitres (5 mg/mL) of MTT (Sigma) dissolved in PBS was added to each well, and the plates were incubated at 37 °C for 4 h. The medium from the wells was removed, rinsed, and 50 µL of 100% DMSO was added to the wells. At a wavelength of 570 nm, absorbance was measured using a microplate reader (BioTek Synergy, Beijing, China). Each sample concentration was tested in quadruplicate in two repeats (n = 8), and the concentration causing 50% inhibition of cell viability (LC50) was calculated. Selectivity index (SI) values for the extracts/compounds were obtained by dividing cytotoxicity LC50 values of normal (Vero) cells by those of the cancer cells.

E. faecalis = test system: E. faecalis; design: method as in doi:10.1590/0102-695X20142413348; settings: cited from earlier work
[2] = test system: Candida albicans ATCC 10231; experiment: Serial dilution microplate MIC (fungi); format: cell-based; settings: Table 2; for MIC: Candida albicans, ATCC10231, isolated compounds, read-out: Minimum inhibitory concentration (MIC) C. albicans; for Selectivity index C. albicans: in brackets, Vero LC50 vs MIC
Method: (§1) The MIC value of the plant extracts and isolated compounds against one fungal and five bacterial strains (Salmonella Typhimurium ATCC 39183, Escherichia coli ATCC 25922, Pseudomonas aeruginosa ATCC 27853, Staphylococcus aureus ATCC 29213, Enterococcus faecalis ATCC 29212, and fungi culture, Candida albicans ATCC 10231) was assessed in triplicate using the serial dilution microplate method; acetone and DMSO were used as solvents. Bacterial cultures were grown in Mueller Hinton broth (Sigma Aldrich, St. Louis, MO, USA) overnight and adjusted to McFarland standard 1 (1 × 10^8 CFU/mL). Then, 100 µL of samples were transferred into the first well of a sterile 96-well microtiter plate, which contained 100 µL of water and a 1:1 serial dilution with sterilized distilled water was carried out. In each well, 100 µL of appropriately adjusted fungal or bacterial cultures were added, and the bacteria were subjected to final concentrations of 250–3.9 μg/mL for pure compounds and 2.5–0.02 mg/mL for crude extracts. Amphotericin-B and Gentamicin (Virbac, Carros, France) served as positive controls for fungi and bacteria, respectively. For sterility, water served as control, while acetone served as a negative control. The microplates were then incubated for 24 h at 37 °C. Following incubation, 40 µL of 0.2 mg/mL p-iodonitrotetrazolium violet (INT, Sigma Aldrich) dissolved in water (hot) was added to the wells before being incubated at 37 °C for another 2 h. In the case of fungi, the INT was added before incubation. The MIC was measured visually as the lowest concentration of the compounds/extracts that inhibited proliferation.

HepG2 cells = test system: HepG2 cells; design: method as in ref 66 = [66]; 66. NCCLS 2007 Available online: http://www.nccls.org (accessed on 15 March 2022); settings: cited from earlier work
[3] = test system: S. aureus, MRSA, Proteus mirabilis, S. typhi, K. pneumoniae, E. coli, Bacillus subtilis, C. albicans and C. tropicalis; settings: 200µg/mL; cited from earlier work
[4] = test system: Staphylococcus aureus ATCC 29213; experiment: Serial dilution microplate MIC; format: cell-based; settings: Table 2; for MIC: Staphylococcus aureus, ATCC29213, isolated compounds, read-out: Minimum inhibitory concentration (MIC) S. aureus; for Selectivity index S. aureus: in brackets, Vero LC50 vs MIC
Method: as §1

[5] = test system: Pseudomonas aeruginosa ATCC 27853; experiment: Serial dilution microplate MIC; format: cell-based; settings: Table 2; for MIC: Pseudomonas aeruginosa, ATCC27853, isolated compounds, read-out: Minimum inhibitory concentration (MIC) P. aeruginosa; for Selectivity index P. aeruginosa: in brackets, Vero LC50 vs MIC
Method: as §1

[6] = test system: Enterococcus faecalis ATCC 29212; experiment: Serial dilution microplate MIC; format: cell-based; settings: Table 2; for MIC: Enterococcus faecalis, ATCC29212, isolated compounds, read-out: Minimum inhibitory concentration (MIC) E. faecalis; for Selectivity index E. faecalis: in brackets, Vero LC50 vs MIC
Method: as §1

[7] = test system: Salmonella Typhimurium ATCC 39183; experiment: Serial dilution microplate MIC; format: cell-based; settings: Table 2; for MIC: Salmonella enterica, isolated compounds, read-out: Minimum inhibitory concentration (MIC) S. Typhimurium; for Selectivity index S. Typhimurium: in brackets, Vero LC50 vs MIC
Method: as §1

[8] = test system: Escherichia coli ATCC 25922; experiment: Serial dilution microplate MIC; format: cell-based; settings: Table 2; for MIC: Escherichia coli, ATCC25922, isolated compounds, read-out: Minimum inhibitory concentration (MIC) E. coli; for Selectivity index E. coli: in brackets, Vero LC50 vs MIC
Method: as §1

IL-6 production = test system: IL-6 production; design: method as in PMID 25573777; settings: TNF-α stimulated MG-63 cells; cited from earlier work
Staphylococcus aureus = test system: Staphylococcus aureus; design: method as in PMID 19007012; settings: filter paper slice method; cited from earlier work
[9] = test system: one fungal and five bacterial strains; experiment: Serial dilution microplate MIC, whole panel; format: cell-based; settings: isolated compounds, highest concentration 250 µg/mL
Method: as §1

HeLa cancer cells = test system: HeLa cancer cells; design: method as in doi:10.1016/j.sajb.2015.08.016; settings: dose-dependent cytotoxicity; cited from earlier work

Compound	CC50 at 48 h (in vitro) [µg/mL]	MIC [2] [µg/mL]	Selectivity index C. albicans [2]	MIC [4] [µg/mL]	Selectivity index S. aureus [4]	MIC [5] [µg/mL]	Selectivity index P. aeruginosa [5]	MIC [6] [µg/mL]	Selectivity index E. faecalis [6]	MIC [7] [µg/mL]	Selectivity index S. Typhimurium [7]	MIC [8] [µg/mL]	Selectivity index E. coli [8]	further results
C[C@@H]1CC[C@H]2[C@@H](C)C(=O)O[C@@H]3O[C@@]4(C)CC[C@@H]1[C@]32OO4 [Artemisinin]														MIC B. subtilis (B. subtilis): 90 µg/mL (≈ 319 µM); MIC Salmonella sp. (Salmonella sp.): 90 µg/mL (≈ 319 µM); MIC S. aureus (S. aureus): 90 µg/mL (≈ 319 µM)
CC[C@@H](CC[C@@H](C)[C@H]1CC[C@H]2[C@@H]3CC=C4C[C@@H](O[C@H]5O[C@@H](CO)[C@H](O)[C@@H](O)[C@@H]5O)CC[C@]4(C)[C@H]3CC[C@]12C)C(C)C [Sitosterol-3-O-β-D-glucopyranoside, sitosterol-3-O-β-D-glucopyranoside]	> 200	250 (≈ 433 µM)	> 0.8	> 250	< 0.8	> 250	< 0.8	31.2 (≈ 54.2 µM)	> 6.4	> 250	< 0.8	> 250	< 0.8	IC50 proliferation of Huh7 cells (Huh7 cells): 5.25 ± 0.14 µg/mL; MIC P. aeruginosa (P. aeruginosa): 10 µg/mL (≈ 17.3 µM); Cytotoxic effects on normal human primary fibroblasts [1]: not against normal human primary fibroblasts; MIC E. faecalis (E. faecalis): 15 µg/mL (≈ 26 µM); IC50 proliferation of HepG2 cells (HepG2 cells): 4.64 ± 0.48 µg/mL; Anti-bacterial and anti-fungal activity [3]: wide spectrum of anti-bacterial and anti-fungal activity; Selectivity index E. faecalis ([6]; listed as sitosterol-3-O-β-D-glucopyranoside): more than 6
COc1cc2ccc(=O)oc2c(OC)c1O[C@H]1O[C@@H](CO)[C@H](O)[C@@H](O)[C@@H]1O [Isofraxidin-7-O-β-D-glucopyranoside, isofraxidin-7-O-β-D-glucopyranoside]	> 200	250 (≈ 650 µM)	> 0.8	250 (≈ 650 µM)	> 0.8	> 250	< 0.8	> 250	< 0.8	250 (≈ 650 µM)	> 0.8	250 (≈ 650 µM)	> 0.8	Inhibitory activity against IL-6 production (IL-6 production): 14%; Anti-bacterial effect against Staphylococcus aureus (Staphylococcus aureus): no activity; MIC ([9]; all tested strains, read-out: MIC against all tested microorganisms): ≥ 250 µg/mL; MIC against all tested microorganisms [9]: no efficacy
C=C1C(=O)O[C@@H]2C[C@@]3(C)CCCC(=C)[C@@H]3C[C@H]12 [Isoalantolactone]														IC50 (HeLa cancer cells): 8.15 ± 1.16 µM
